Twelve compounds from patent publication US8557796B2, “Substituted 1-oxa-2,8-diaza-spiro [4,5] dec-2-ene derivatives and related treatment methods” (Gruenenthal GmbH, priority 2001, dated 2013) can be followed below.

In the assay the test system is batrachotoxin (BTX) binding site (binding site 2) of the sodium channel. Nature of the assay: Bond test on the sodium channel, binding site 2 (BTX bond), [3H]-batrachotoxinin A20 α-benzoate displacement. The settings on record: rat cerebrocortex synaptosomes.
For `O=C(NC1CCCC1OCc1ccccc1)C1=NOC2(CCN(S(=O)(=O)c3cccc(C(F)(F)F)c3)CC2)C1` (stereo not drawn) [Example 201, 8-(3-trifluoromethyl-benzenesulphonyl)-1-oxa-2,8-diaza-spiro[4,5]dec-2-ene-3-carboxylic acid (2-benzyloxy-cyclopentyl)-amide], the “BTX bond, 10 μM, % inhibition” value worked out at 61%.

Take `O=C(NCc1ccccc1)C1=NOC2(CCN(C(=O)c3ccc(F)c(Cl)c3)CC2)C1` [Example 205, 8-(3-chloro-4-fluorobenzoyl)-1-oxa-2,8-diaza-spiro[4,5]dec-2-ene-3-carboxylic acid benzylamide]: the “BTX bond, 10 μM, % inhibition” value is given as 53%.

Consider `O=C(NCc1ccccc1F)C1=NOC2(CCN(S(=O)(=O)c3ccc(F)cc3)CC2)C1` [Example 207, 8-(4-fluoro-benzenesulphonyl)-1-oxa-2,8-diaza-spiro[4,5]dec-2-ene-3-carboxylic acid 2 fluorobenzylamide], for which the “BTX bond, 10 μM, % inhibition” value was 56%.

Turning to `O=C(NCc1cccs1)C1=NOC2(CCN(C(=O)c3cccc(Cl)c3)CC2)C1` [Example 208], the “BTX bond, 10 μM, % inhibition” value is reported as 74%.

On to `O=C(C1=NOC2(CCN(S(=O)(=O)c3cc(Cl)ccc3Cl)CC2)C1)N1CCN(Cc2ccccc2)CC1` [Example 209, (4-benzyl-piperazin-l-yl)-[8-(2,5-dichloro-benzenesulphonyl)-1-oxa-2,8-diaza-spiro[4,5]dec-2-en-3-yl]-methanone], for which the “BTX bond, 10 μM, % inhibition” value is 61%.

Consider `O=C(NCc1ccccc1)C1=NOC2(CCN(S(=O)(=O)c3cccc(Cl)c3)CC2)C1` [Example 210, 8-(3-chloro-benzenesulphonyl)-1-oxa-2,8-diaza-spiro[4,5]dec-2-ene-3-carboxylic acid benzylamide], for which the “BTX bond, 10 μM, % inhibition” value stood at 62%.

Consider `O=C(C1=NOC2(CCN(S(=O)(=O)c3cccc(C(F)(F)F)c3)CC2)C1)N1CCC(Cc2ccccc2)CC1` [Example 211, (4-benzyl-piperidin-l-yl)-[8-(3-trifluoromethyl-benzene-sulphonyl)-1-oxa-2,8-diaza-spiro[4,5]dec-2-en-3-yl]-methanone], for which the “BTX bond, 10 μM, % inhibition” value is 48%.

Turning to `O=C(NCc1ccccc1)C1=NOC2(CCN(C(=O)c3ccc(Br)cc3)CC2)C1` [Example 212, 8-(4-bromo-benzoyl)-1-oxa-2,8-diaza-spiro[4,5]dec-2-ene-3-carboxylic acid benzylamide], the “BTX bond, 10 μM, % inhibition” value turned out to be 58%.

On to `CC(C)CC(NC(=O)C1=NOC2(CCN(S(=O)(=O)c3cccc(C(F)(F)F)c3)CC2)C1)C(=O)OC(C)(C)C` (stereo not drawn) [Example 214, 4-methyl-2-{[8-(3-trifluoromethyl-benzenesulphonyl)-1-oxa-2,8-diaza-spiro[4,5]dec-2-ene-3-carbonyl]-amino}-pentanoic acid tert-butyl ester], for which the “BTX bond, 10 μM, % inhibition” value amounted to 61%.

Regarding `CCN(CCNC(=O)C1=NOC2(CCN(S(=O)(=O)N(C)C)CC2)C1)c1cccc(C)c1` [Example 216, 8-dimethylsulphamoyl-1-oxa-2,8-diaza-spiro[4,5]dec-2-ene-3-carboxylic acid [2-(ethyl-m-tolyl-amino)-ethyl]amide], the “BTX bond, 10 μM, % inhibition” value stood at 64%.

Turning to `Cc1cc(C(=O)N2CCC3(CC2)CC(C(=O)NCc2ccccc2)=NO3)c(C)o1` [Example 217, 8-(2,5-dimethyl-furan-3-carbonyl)-1-oxa-2,8-diaza-spiro[4,5]dec-2-ene-3-carboxylic acid benzylamide], the “BTX bond, 10 μM, % inhibition” value is 51%.

On to `O=C(C1=NOC2(CCN(S(=O)(=O)c3ccc(F)cc3)CC2)C1)N1CCN(C2CCCCCC2)CC1` [Example 218], for which the “BTX bond, 10 μM, % inhibition” value is 79%.
